Data taken from patent US3988308A, “(Tyr^3, Tyr^14)-SRIF and intermediates” (American Home Products Corporation, priority 1974, dated 1976).
No end group written: not given here.

What was measured:
[1] = system: growth hormone release in rat pituitary cell culture; test: growth hormone inhibiting activity by radioimmunoassay in a rat pituitary cell culture system; type: cell-based; settings: tested at 10 ng/ml, 100 ng/ml and 1000ng/ml
Procedure: (§1) The growth hormone inhibiting activity of the compound of Example 3 was determined by radioimmunoassay in a rat pituitary cell culture system as described by Vale et al, Endocrinology 91, pp 562 (1972) and Grant et al, Biochemical and Biophysical Research Communications 51, pp 100-106 (1973). The compound of Example 3 was tested at 10 ng/ml, 100 ng/ml and 1000ng/ml and was active at these concentrations in inhibiting growth hormone release. The in vivo activity of the compound of Example 3 was determined by dissolving 500 μg of this compound in a mixture of polyethylene glycol (PEG 400) and water (1 ml) and the mixture was injected in rats weighing 200-240 g. Control rats were injected with 80% PEG 400. One hour and forty minutes later the rats were injected i.p. with nembutal at 50 mg/kg. Twenty minutes after the nembutal injection the rats were killed and their blood plasmas were assayed for growth hormone by radioimmunoassay.

growth hormone = test: in vivo activity: plasma growth hormone by radioimmunoassay in nembutal-treated rats; settings: 500 μg in PEG 400/water (1 ml) injected; rats 200-240 g; nembutal 50 mg/kg i.p. at 1 h 40 min; killed 20 min later; 19 treated rats; control average 117.9 ± 13.6
Procedure: as §1
The average of 19 treated rats was 80.1 ± 9.0 × 10^-^9 g GH/ml and the average of 11 control rats was 117.9 ± 13.6 × 10^^-9 g GH/ml.

growth hormone (GH) = settings: background; Brazeau et al., Science 179 (1973); U.S. Pat. No. 3,842,066; cited from earlier work

Molecule | inhibiting growth hormone release [1] | blood plasma growth hormone, average of treated rats (growth hormone) | inhibition of secretion/release of growth hormone (somatotropin) (growth hormone (GH))
AGYKNFFWKTFTSY [Example 3, L-alanylglycyl-L-tyrosyl-L-lysyl-L-asparaginyl-L-phenylalanyl-L-phenylalanyl-L-tryptophyl-L-lysyl-L-threonyl-L-phenylalanyl-L-threonyl-L-seryl-L-tyrosine] | active | 80.1 ± 9.0 × 10^-9 g GH/ml | –
C[C@H](N)C(=O)NCC(=O)N[C@H]1CSSC[C@@H](C(=O)O)NC(=O)[C@H](CO)NC(=O)[C@H]([C@@H](C)O)NC(=O)[C@H](Cc2ccccc2)NC(=O)[C@H]([C@@H](C)O)NC(=O)[C@H](CCCCN)NC(=O)[C@H](Cc2c[nH]c3ccccc23)NC(=O)[C@H](Cc2ccccc2)NC(=O)[C@H](Cc2ccccc2)NC(=O)[C@H](CC(N)=O)NC(=O)[C@H](CCCCN)NC1=O [Somatostatin] | – | – | inhibit the secretion of the hormone somatotropin
(Ala^3,Ala^14)-SRIF: somatostatin analog described in U.S. Pat. No. 3,842,066 (AGAKNFFWKTFTSA; Somatostatin-14; UniProt P61278 103-116, looked up, variant C3A C14A) | – | – | inhibiting the release of growth hormone
H-Ala-Gly-Cys-Lys-Asn-Phe-Phe-Trp-Lys-Thr-Phe-Thr-Ser-Cys-OH (H-AGCKNFFWKTFTSC-OH; ends and bridges not checked) [linear form of somatostatin, synthesized by solid phase methodology] | – | – | same biological activity as the somatostatin obtained from a natural source
